Experimental data reported in patent US10945972B2, “Particulate materials” (Nektar Therapeutics, priority 2002, dated 2021).
Read-outs that look alike come from different tables or passages of the source.

Legend:
[1] = Inverse gas chromatography of SX powders (Example 2); conditions: for KA: acidity parameter; for γs^D (mJ/m^2): column at 40° C.; for −ΔGA^SP (kJ/mol) Acetone: probe acetone; for −ΔGA^SP (kJ/mol) Chloroform: probe chloroform; for −ΔGA^SP (kJ/mol) Diethyl ether: probe diethyl ether; for −ΔGA^SP (kJ/mol) Ethyl acetate: probe ethyl acetate; for −ΔGA^SP (kJ/mol) Tetrahydrofuran: probe tetrahydrofuran
[2] = BET nitrogen adsorption specific surface area (Example 2); format: physicochemical
Protocol: Data on specific surface areas required for IGC studies were determined by BET nitrogen adsorption using a Surface Area Analyzer Coulter SA 3100 (Coulter Corp., Miami, Fla., USA). Samples were placed in glass sample holders and out-gassed with helium (purity >99.999%) at 40° C. for 16 hours before analysis. Nitrogen (purity >99.999%) was used as adsorbate and BET surface area was recorded as specific surface area of the samples. All measurements were performed in triplicate using the same batch of each material.

[3] = Triboelectrification in turbula mixer, charge and adhesion; format: physicochemical; conditions: for Q (nCg^−1) After mixing: 5 minutes at 30 rpm
Protocol: (§1) Triboelectrification was undertaken against a stainless steel contact surface using either a turbula mixer or a cyclone separator. Triboelectrification in a turbula mixer (Glen Creston, UK) was carried out by agitating a powder sample for 5 minutes at 30 rpm in a 100 ml stainless steel vessel at ambient temperature and relative humidity. A sample was poured in a reproducible manner into a Faraday well connected to an electrometer (Keithley 610, Keithley Instruments, Reading, UK). Charge and mass of sample was then recorded to give specific charge before and after triboelectrification. % w/w adhesion to the inner surface of the mixing vessel was calculated from the original mass of sample and the mass of sample poured into the Faraday well. During triboelectrification in a cyclone separator, a powder was fed from a steel vibratory table into a venturi funnel. Compressed air (velocity 8 m/s. relative humidity below 10%, ambient temperature) was used to convey the powder from the venturi along a horizontal pipe into the cyclone separator. The Faraday well and force compensation load cell was fitted at the base of the cyclone and used to collect charged particles. Final specific charge was recorded for non-adhered powder residing in the Faraday well and, where possible, powder adhering to the cyclone wall was dislodged by a stream of air and its charge and mass recorded. In both cases, the results were obtained from triplicate measurements.

[4] = Particle size by AeroSizer time-of-flight (Example 1); format: physicochemical; conditions: aerodynamic-equivalent volume mean diameter
Protocol: (§2) PSD measurements were performed using firstly, AEROSIZER® time-of-flight instrument equipped with AERO-[…]® (TSI Inc., Minneapolis. USA) and secondly, laser diffraction sensor Helos with dry-powder air-dispersion system Rodos (Sympatec GmbH. Germany). The volume mean particle diameter, VMD, was obtained for both instruments using software options. In the general case of non-spherical particles, these instruments cannot provide the exact value of VMD, however, the time-of-flight technique gives an aerodynamic-equivalent particle diameter, whereas the laser diffraction method provides the geometric projection-equivalent diameter. These diameters afford the complementary information on PSD and therefore can be used for comparative size analysis.

[5] = Laser diffraction particle size analysis HELOS/RODOS (Example 2); format: physicochemical; conditions: for mean particle size d4,3: LD technique
Protocol: The instrument consisted of laser diffraction sensor HELOS and dry-powder air-dispersion system RODOS (Sympatec GmbH. Germany) with WINDOX OS computer interface. The dispersion process was controlled by means of adjusting pressure of the compressed air flow between 0.5 and 5 bar. […] All measurements were performed in triplicate. The particle shape factor, f, was calculated as f=Sv/Sv*. where Sv is the experimental specific surface area and Sv* is the specific surface area determined using the LD instrument assuming the particle sphericity.

[6] = Inverse gas chromatography surface energy (Example 1); format: physicochemical; conditions: 303K; for ΔGA (kJ/mol) Diethyl ether: probe diethyl ether
Excerpt: For TBS and FHBr powders, IGC was done using a Hewlett Packard Series 6890 instrument which was specifically modified for IGC measurements by Surface Measurement Systems Ltd (Manchester, UK). The IGC method is described in detail by Tong et al. 2001. (Tong H. H. Y., B. Y. Shekunov, P. York, A. H. L. Chow, 2001. Pharm. Res. 18, 852.) Triplicate measurements in separate packed columns were made. […] The γS^D and ΔGA values were obtained at 303K.

[7] = Bulk powder density (Example 2); format: physicochemical
[8] = Triboelectrification in cyclone separator, charge and adhesion; format: physicochemical
Protocol: as §1

[9] = Particle size by Helos/Rodos laser diffraction (Example 1); format: physicochemical; conditions: geometric projection-equivalent volume mean diameter
Protocol: as §2

For `OCc1cc(C(O)CNCCCCCCOCCCCc2ccccc2)ccc1O` (stereo not shown) [G-SX, Salmeterol xinafoate], the KA [1] was 0.233, the “γs^D (mJ/m^2)” value [1] was 36.972 mJ/m^2 and the “−ΔGA^SP (kJ/mol) Acetone” value [1] was 5.454 kJ/mol. For the same molecule, the “−ΔGA^SP (kJ/mol) Chloroform” value [1] was 1.885 kJ/mol, the “−ΔGA^SP (kJ/mol) Diethyl ether” value [1] was 2.958 kJ/mol and the “−ΔGA^SP (kJ/mol) Ethyl acetate” value [1] was 4.739 kJ/mol. For the same molecule, the “−ΔGA^SP (kJ/mol) Tetrahydrofuran” value [1] was 4.854 kJ/mol and the “SV (specific surface area)” value [2] was 10.699.
For `OCc1cc(C(O)CNCCCCCCOCCCCc2ccccc2)ccc1O` (stereo not shown) [SX Micronised, salmeterol xinafoate, reference compound], the “Q (nCg^−1) After mixing” value ([3]; listed as M-SX) was −42.6 nCg^−1, the “AD (% w/w), fraction of adhered material” value ([3]; listed as M-SX) was 27 % w/w and the “Q (nCg^−1) Before mixing” value ([3]; listed as M-SX) was −12.1 nCg^−1. The “VMD (μm) (Time of flight)” value [4] was 1.2 μm, the “mean particle size d4,3” value ([5]; listed as M-SX) was 1.8 μm and the “f (particle shape factor, f=Sv/Sv*)” value ([5]; listed as M-SX) was 2.80. The “γs^D (mJ/m^2)” value [6] was 40.49 mJ/m^2, the “ΔGA (kJ/mol) Acetone” value ([6]; probe acetone) was 15.24 kJ/mol and the “ΔGA (kJ/mol) Chloroform” value ([6]; probe chloroform) was 14.78 kJ/mol. The “ΔGA (kJ/mol) Diethyl ether” value [6] was 14.20 kJ/mol, the “ΔGA (kJ/mol) Ethyl acetate” value ([6]; probe ethyl acetate) was 17.46 kJ/mol and the KA ([1]; listed as M-SX) was 0.172. For the same molecule, the “γs^D (mJ/m^2)” value ([1]; listed as M-SX) was 38.285 mJ/m^2, the “−ΔGA^SP (kJ/mol) Acetone” value ([1]; listed as M-SX) was 4.560 kJ/mol and the “−ΔGA^SP (kJ/mol) Chloroform” value ([1]; listed as M-SX) was 0.810 kJ/mol. The “−ΔGA^SP (kJ/mol) Diethyl ether” value ([1]; listed as M-SX) was 2.774 kJ/mol, the “−ΔGA^SP (kJ/mol) Ethyl acetate” value ([1]; listed as M-SX) was 3.995 kJ/mol and the “−ΔGA^SP (kJ/mol) Tetrahydrofuran” value ([1]; listed as M-SX) was 3.609 kJ/mol. The bulk powder density ([7]; listed as M-SX) was 0.5 g/mL, the “AD (% w/w), fraction of adhered material” value ([8]; listed as M-SX) was 16.7 % w/w and the “Q (nCg^−1) After mixing” value ([8]; listed as M-SX) was −49.7 nCg^−1. For the same molecule, the “Q (nCg^−1) Before mixing” value ([8]; listed as M-SX) was −48.4 nCg^−1, the “SV (specific surface area)” value ([2]; listed as M-SX) was 9.243 and the “VMD (μm) (laser diffraction)” value [9] was 1.69 μm.
For `OCc1cc(C(O)CNCCCCCCOCCCCc2ccccc2)ccc1O` (stereo not shown) [SX SEDS, salmeterol xinafoate], the “Q (nCg^−1) After mixing” value ([3]; listed as S-SX) was −0.17 nCg^−1, the “AD (% w/w), fraction of adhered material” value ([3]; listed as S-SX) was 1.5 % w/w and the “Q (nCg^−1) Before mixing” value ([3]; listed as S-SX) was −0.52 nCg^−1. The “VMD (μm) (Time of flight)” value [4] was 1.6 μm, the “mean particle size d4,3” value ([5]; listed as S-SX) was 3.5 μm and the “f (particle shape factor, f=Sv/Sv*)” value ([5]; listed as S-SX) was 3.78. For the same molecule, the “γs^D (mJ/m^2)” value [6] was 34.55 mJ/m^2, the “ΔGA (kJ/mol) Diethyl ether” value [6] was 12.65 kJ/mol and the “magnitude of γS^D smaller than for M-SX and G-SX” value [1] was 15%. The KA ([1]; listed as S-SX) was 0.110, the “γs^D (mJ/m^2)” value ([1]; listed as S-SX) was 32.476 mJ/m^2 and the “−ΔGA^SP (kJ/mol) Acetone” value ([1]; listed as S-SX) was 3.797 kJ/mol. The “−ΔGA^SP (kJ/mol) Chloroform” value ([1]; listed as S-SX) was 0.153 kJ/mol, the “−ΔGA^SP (kJ/mol) Dichloromethane” value ([1]; probe dichloromethane) was 2.808 kJ/mol and the “−ΔGA^SP (kJ/mol) Diethyl ether” value ([1]; listed as S-SX) was 1.488 kJ/mol. For the same molecule, the “−ΔGA^SP (kJ/mol) Ethyl acetate” value ([1]; listed as S-SX) was 2.705 kJ/mol, the “−ΔGA^SP (kJ/mol) Tetrahydrofuran” value ([1]; listed as S-SX) was 2.446 kJ/mol and the bulk powder density ([7]; listed as S-SX) was “about 0.1 g/cm^3”. The “AD (% w/w), fraction of adhered material” value ([8]; listed as S-SX) was 5.5 % w/w, the “Q (nCg^−1) After mixing” value ([8]; listed as S-SX) was −34.6 nCg^−1 and the “Q (nCg^−1) Before mixing” value ([8]; listed as S-SX) was 4.9 nCg^−1. For the same molecule, the “SV (specific surface area)” value ([2]; listed as S-SX) was 7.040 and the “VMD (μm) (laser diffraction)” value [9] was 3.56 μm.
